{"source": "patent EP2045247B1", "about": "“Compounds for the inhibition of histone deacetylase” (NatureWise Biotech & Medicals Corporation, priority 2007, dated 2009)", "key": {"rat C6 glioma cells [1]": {"tested_on": "rat C6 glioma cells", "assay": "Inhibition of growth of rat C6 glioma cells (observation and cell counting)", "format": "cell-based", "details": "2.5, 5 and 10 µg/mL, 48 hours; cell density and cell counting (Fig. 1)", "experimental": "The cancer cell line, rat C6 glioma cells, was cultured in Dulbecco's modified Eagle's medium (DMEM; Gibco) supplemented with penicillin G, streptomycin sulphate, 0.5 mM of L-glutamine and 10% fetal bovine serum (FBS; Gibco) at 37 °C, 5% CO2 and 95% relative humidity. For all experiments, the cells were seeded at a density of 3×10^5 per well in 6-well plates. After 24 hours, the cells were treated with different concentrations of the compound NBM-HD-1 (i.e., the compound of formula III depicted herein). After 48 hours, the cells were observed and counted. According to the results shown in Fig. 1, NBM-HD-1 can arrest the growth of rat C6 glioma cells. After the C6 glioma cells were incubated with 2.5 µg/mL (see Fig. 1(A)-b), 5 µg/mL (see Fig. 1(A)-c) and 10 µg/mL (see Fig. 1(A)-d) of NBM-HD-1 for 48 hours, the density of the cells reduced dramatically in comparison with that of control (see Fig. 1(A)-a)."}, "rat C6 glioma cells [2]": {"tested_on": "rat C6 glioma cells", "assay": "Cell cycle analysis of C6 glioma cells, DNA content by PI staining and FACScan cytometry", "format": "cell-based", "details": "0, 2.5, 5 and 10 µg/mL, 72 hours (Fig. 2)", "experimental": "(§1) 1×10^6 of rat C6 glioma cells were treated with various concentrations of NBM-HD-1 (0 µg/mL, 2.5 µg/mL, 5 µg/mL, and 10 µg/mL) for 72 hours. The treated cells were trysinized and collected. The cells were resuspended in 200 µL PBS and then fixed by adding 800 µL of cold 100% ethanol. The resulting cells were fixed overnight at -20[…]. The cell pellets were collected by centrifugation, resuspended in 1 mL of hypotonic buffer (0.5% Triton X-100 in PBS and 1 µg/mL RNase A), and incubated at 37 °C for 30 minutes. Then, 1 mL of PI solution (50 µg/mL) was added to the resulting cell pellets. The mixture was allowed to stand at 4[…] for 30 min. The DNA amounts of the cells were analyzed by FACScan Cytometry (Becton Dickinson) (see Fig. 2)."}, "rat C6 glioma cells [3]": {"tested_on": "rat C6 glioma cells", "assay": "RT-PCR of cell cycle regulator mRNA in C6 glioma cells", "format": "cell-based", "details": "GAPDH internal control (Fig. 3)", "experimental": "For the rat C6 glioma cells, the cell cycle related to mRNA expression was examined by RT-PCR. The total RNAs were isolated from the treated C6 cells by using the RNeasy Mini Kit (Qiagen) according to the manufacturer's instructions. The cDNAs were produced from 500ng of total RNAs using ReverTra-Plus-TM (TOYOBO). The RT product (1µl) was amplified by PCR with primers to analyze several genes of cell cycle by using GAPDH as an internal control. According to the results of Fig. 3, NBM-HD-1 can modulate the expression of some cell cycle regulators. […] On the contrary, the expression of p21 was increased."}, "acetylated histone H4": {"tested_on": "acetylated histone H4", "assay": "Western blotting of hyperacetylated histone H4 in C6 glioma cell lysates", "format": "cell-based, rat", "details": "C6 glioma cells", "experimental": "Accumulation of hyperacetylated histone H4 was analyzed in the cell lysates by using Western Blotting and the antibody directed against acetylated histone H4 (Upstate). The C6 glioma cells were seeded at a density of 1×10^6 per 10cm culture dish. After 24 hours, the cells were treated with 10 µg/mL of NBM-HD-1 or 4mM sodium butyrate for several hours. The whole-cell lysates were prepared by using denaturing SDS sample buffer and then separated on 15% SDS-polyacrylamide gels. […] The amount of acetylated histones was hardly detectable in untreated C6 glioma cells. The amount of acetylated histone H4 of the cells treated with 4mM sodium butyrate for 2 hours increased. Sodium butyrate was then removed from the culture medium. After 6 hours, the amount of acetylated histone H4 decreased. The accumulation of acetylated histone H4 increased in the cells treated with NBM-HD-1 for 2 hours. […] The highest histone acetylation appeared at 6 hours after the compound had been removed. […] Because NBM-HD-1 is more hydrophobic than sodium butyrate, NBM-HD-1 can be retained in the cells longer than sodium butyrate and continuously induce the acetylation of histone H4."}, "[4]": {"tested_on": "human giloblastoma DBTRG-05MG cancer cells", "assay": "Inhibition of growth and change of morphology of DBTRG-05MG cells", "format": "cell-based", "experimental": "The human giloblastoma DBTRG-05MG cancer cells were cultured in RPMI medium 1640 (Gibco) supplemented with penicillin G, streptomycin sulphate, 0.5 mM of L-glutamine and 10% fetal bovine serum (FBS; Gibco), 100mh/L sodium pyruvate (Gibco), and 1% NEAA (Gibco) at 37 °C, 5% CO2 and 95% relative humidity. For these experiments, the cells were seeded at a density of 3×10^5 per well of 6-well plates. After 24 hours, the cells were treated with different concentrations of NBM-HD-1 and 4 mM sodium butyrate. The cells were observed and counted after 72 hours. […] In 05MG cells (Fig. 7(A)), after incubation with 2.5 µg/mL (Fig. 7(A)-b), 5 µg/mL (Fig. 7(A)-c) and 10 µg/mL (Fig.7(A)-d) of NBM-HD-1 for 72 hours, the density of the cells reduced dramatically in comparison with that of the control group (Fig. 7(A)-a). The 05MG cells in the experimental group also changed to become longer than those in the control group."}, "MCF-7 cancer cells": {"tested_on": "MCF-7 cancer cells", "assay": "Cell cycle analysis of MCF-7 cells by FACScan cytometry", "format": "cell-based, human", "details": "0, 2.5, 5 and 10µg/mL, 72 hours (Fig. 9)", "experimental": "as §1\nMCF-7 cancer cells (1×10^6) in a 100-mm dish were treated with various concentrations of NBM-HD-1 (0, 2.5, 5, and 10µg/mL) or 4mM sodium butyrate for 72 hours. The samples were prepared following the steps mentioned in [0063]. The DNA of the cells was then analyzed by FACScan cytometry (Becton Dickinson). […] The percentage of G0/G1 phase increased from 74.46 to 92.55 in a dose-dependent manner."}, "p21": {"tested_on": "p21", "assay": "RT-PCR of p21 mRNA in MCF-7 cells", "format": "cell-based, human", "details": "different doses, 24 hours (Fig. 10)", "experimental": "The cell cycle related to p21 mRNA expression was examined by RT-PCR. The total RNAs were isolated from the treated MCF-7 cells and used in the RT reaction. cDNA (1µl) was used as a template to amplify p21 gene by PCR. GAPDH was used as an internal control. […] In this experiment, MCF-7 cells were treated with different doses of NBM-HD-1 for 24 hours."}}, "data": [{"smiles": "COc1cc2c(c(OC)c1CCC(C)(C)O)C(=O)C[C@@H](c1ccc(OC)c(OC)c1C/C=C(\\C)CCCC(C)(C)O)O2", "note": "[NBM-HD-1]", "values": [{"measurement": "growth of C6 glioma cells", "setting": "rat C6 glioma cells [1]", "value": "can inhibit the growth of C6 glioma cells in a dose-dependent manner"}, {"measurement": "cell cycle (DNA contents)", "setting": "rat C6 glioma cells [2]", "value": "cell cycle arrest on the G0/G1 phase in a dose-dependent manner"}, {"measurement": "expression of cyclinB1", "setting": "rat C6 glioma cells [3]", "value": "decrease the expression of cyclinD1 and cyclinB1 in a dose-dependent manner"}, {"measurement": "expression of cyclinD1", "setting": "rat C6 glioma cells [3]", "value": "decrease the expression of cyclinD1 and cyclinB1 in a dose-dependent manner"}, {"measurement": "expression of p21", "setting": "rat C6 glioma cells [3]", "value": "increased"}, {"measurement": "accumulation of acetylated histone H4, treated for 2 hours", "setting": "acetylated histone H4; 10 µg/mL NBM-HD-1 or 4mM sodium butyrate, 2 hours (Fig. 5)", "value": "increased"}, {"measurement": "time of highest histone acetylation after the compound had been removed", "setting": "acetylated histone H4; 10 µg/mL, 2 hours treatment, then removal", "value": 6, "unit": "h"}, {"measurement": "amount of acetylated histone H4 after removal of the compound from the culture medium", "setting": "acetylated histone H4; up to 6 hours after removal (Fig. 5)", "value": "increased over time"}, {"measurement": "morphology of 05MG cancer cells", "setting": "[4]; 2.5, 5 and 10 µg/mL, 72 hours (Fig. 7(A))", "value": "change the morphology of 05MG cancer cells"}, {"measurement": "growth of 05MG cells", "setting": "[4]; NBM-HD-1 2.5, 5 and 10 µg/mL, sodium butyrate 4 mM, 72 hours, density and cell counting (Fig. 7)", "value": "can inhibit the growth of 05MG cells in a dose-dependent manner"}, {"measurement": "S and G2/M phases of the cells", "setting": "MCF-7 cancer cells", "value": "significantly decreased both S and G2/M phases of the cells in a dose-dependent manner"}, {"measurement": "p21 mRNA expression", "setting": "p21", "value": "induced the expression of p21 in a dose-dependent manner"}]}]}
